Reference: patent US11555031B2, “Compounds and methods for regulating insulin secretion” (The Broad Institute, Inc., priority 2017, dated 2023)
Entries after “also recorded” stand apart in the source; their conditions may differ.

What was measured:
[1] = system: INS-1E cells; experiment: Luciferase Insulin Secretion Assay (proinsulin-Gaussia luciferase reporter); assay type: cell-based, rat; conditions: INS-1E cells; 2.8 mM vs 16.7 mM glucose
Source text: A high-throughput luminescent insulin secretion assay was developed and performed to identify compounds that amplified insulin secretion only in the presence of a permissive glucose environment (FIG. 3). The assay used in compound screening is described in International Patent Publication No. WO2013070796A3, PCT/US2012/063982, and in Burns et al., High-Throughput Luminescent Reporter of Insulin Secretion for Discovering Regulators of Pancreatic Beta-Cell Function. Cell Metab. 2015 Jan. 6; 21(1):126-37.
The assay is a luminescent insulin secretion assay created by inserting Gaussia luciferase within the C-peptide portion of the insulin prohormone. Gaussia luciferase was chosen because of its small size and bright luciferase signal. To ensure full activity of the luciferase, a version was used that was codon-optimized for expression in mammalian cells. The enzyme was flanked with additional cleavage sites for prohormone convertase 2 (PC2), such that no extra amino acids should be present on the ends of the enzyme after processing within the vesicles (FIG. 4). Rat (INS-1E; Merglen et al., 2004) beta-cell lines stably expressing the reporter construct were generated. Assays using this cell type are referred to herein as Luciferase Insulin Secretion Assay.
A search for glucose-dependent insulin secretagogues was conducting by screening 384,216 compounds at a single concentration (10 μM) in duplicate using the Luciferase Insulin Secretion Assay, to identify those that increase insulin secretion only in the presence of high glucose (11.1 mM) (FIG. 6). These assays were performed in 1536 well format. A Z′ factor of 0.35 was obtained with respect the positive control (300 μM IBMX). The cutoff value selected was 45% activation, which was 3-4 standard deviations above background (solid uppermost line; FIG. 6).
For standard secretion assays, INS-1E cells were plated in 96-well format, preincubated for 1 hr in Krebs Ringer Buffer (KRB) with 2.8 mM glucose, and then stimulated for 1 hr in fresh KRB containing varying amounts of glucose and compounds. Insulin or C-peptide concentration was determined using an ELISA (Mercodia), following the manufacturer's protocol. Luciferase activity was determined from the same samples by adding the coelenterazine substrate to the supernatant to a final concentration of 10 μM and reading on a standard plate reader (BioTek).
INS-1E cells were expanded to 80% confluence in their growth medium, washed once in PBS, and preincubated for 1 hr at 37° C. in KRB with 2.8 mM glucose. Cells were then dissociated, spun at 300×g for 2 min, resuspended in fresh KRB without glucose, and filtered through 40 μm mesh (Becton Dickinson). Next, the cells were counted and diluted in KRB to 1×10^6 cells per ml, and glucose was added as required for each experiment. Cells were then seeded in 384-well format, 3×10^4 cells in 30 μl per well, using a Multidrop Combi device (Thermo Scientific). Compounds were pinned into each well using a Vario robot (CyBio) to a final concentration of 30 μM, and the plates were then incubated for 2 hr at 37° C. For assays involving a transfer step, the plates were then centrifuged at 300×g for 2 min, and 20 μl of supernatant was transferred to a new 384-well plate. Coelenterazine substrate was then added to a final concentration of 10 μM, and luciferase activity was determined using a standard plate reader (BioTek).

[2] = system: C57B6/J mice; experiment: In vivo efficacy, glucose tolerance test; design: species or system mouse; conditions: 2 mg/kg tail vein injection, compared to control (vehicle)
Description: Three-month-old male C57B6/J mice of body weight ranging from 20 to 25 g were housed in plastic polycarbonate cages. The animals were maintained at 25° C. with a 12-hour dark, 12-hour light schedule with food and water available ad libitum.
After two weeks of adaptation, the animals were randomly divided into two treatment groups (vehicle and Compound 8 in vehicle) with 5 mice per group. Mice were fasted for 16 hours (overnight) and basal blood glucose level was measured by tail vein nick using the AlphaTRAK 2 glucometer. Animals were given Compound 8 (2 mg/kg body weight) in vehicle or vehicle alone (7.5% NMP, 7.5% Solutol HS-15, 85% normal saline) by tail vein injection. Glucose tolerance tests (GTT) were performed 10 minutes after injection. Animals were given glucose at a dose of 1 g/kg body weight by intraperitoneal injection. Blood glucose was measured using the glucometer immediately before glucose injection, and at 15, 30, 60, and 120 minutes after injection (FIGS. 19A and 19C). At the 0, 15, and 30 minute time points, blood samples for insulin measurements were collected into EDTA-coated tubes and centrifuged at 9000 rpm to separate plasma, which was then stored at −80° C. until analysis. Insulin levels in plasma were analyzed using the ultra-sensitive mouse insulin ELISA kit (Crystal Chem) (FIGS. 19B and 19D). […]

[3] = system: cAMP; experiment: cAMP HTRF assay (Cisbio); assay type: cell-based; conditions: HTRF competition assay; increase in cAMP seen as decrease in signal
Source text: FIG. 9 depicts the quantification of cAMP activity in cells treated with the indicated compound in a HTRF assay from Cisbio.
Further investigation into Compound 8 included measuring levels of the secondary messengers cAMP (FIG. 9) and IP-1 (not shown) in treated cells, as compounds that increase these secondary messengers are known to augment insulin secretion, though often in ways that are not beta-cell specific.
CellTiter-Glo (Promega) and the cAMP Dynamic-2 HTRF assay (Cisbio) were used according to the manufacturers' instructions. Luciferase secretion and CellTiter-Glo experiments were performed using a 1 hr incubation with compound, whereas the cAMP assay was performed using a 30 min incubation. Secretion experiments were run in KRB buffer; all other experiments were run in standard INS-1E medium.

[4] = system: dissociated human islets; experiment: Insulin secretion from dissociated human islets, insulin ELISA; assay type: cell-based
Description: Forskolin is included as a positive control.
Human islets were obtained through the Integrated Islet Distribution Program. Islets were maintained and dissociated in 96-well format as described (Walpita et al., J Biomol Screen 17: 509-518 2012). To test compounds for their effects on insulin secretion, the dissociated islets were washed gently in KRB and preincubated for 1 hr at 37° C. in KRB with 2.8 mM glucose. The cells were then washed twice with zero-glucose KRB and placed in 100 μl of fresh KRB with varied glucose concentrations plus compounds. After a 1 hr incubation at 37° C., the supernatant was removed, and insulin concentration was measured by ELISA (Mercodia) according to the manufacturer's instructions.

Cc1cccc(NC(=O)c2ccc(OCc3c(C)noc3C)cc2)c1C [Compound 8]
glucose-dependent (glucose-stimulated) insulin secretion, luciferase reporter [1]: significant increase in glucose-dependent insulin secretion; also recorded: dose-dependent effect; also recorded: more effective than even the positive control, forskolin | glucose concentration area under the curve (AUC) ([2]; GTT 1 g/kg glucose i.p.): decreased | insulinogenic index ([2]; GTT): increase | cAMP level [3]: did not increase levels | insulin secretion, human islets from nondiabetic donors ([4]; normal donors): significant increase in glucose-dependent insulin secretion; also recorded: dose-dependent effect | insulin secretion, human islets from type 2 diabetic donors ([4]; type 2 diabetes donors): significant increase in glucose-dependent insulin secretion; also recorded: increases insulin secretion
